Source: patent publication US9212163B2, “Pesticidal compositions and processes related thereto” (Dow AgroSciences LLC, priority 2012, dated 2015)

Tested on: Beet Armyworm (BAW) (Spodoptera exigua)
Test: Bioassay on Beet Armyworm (BAW), 128-well diet tray assay
Assay type: in vivo
Conditions: Table 3: Assay Results Part 1
Experimental: Certain molecules disclosed in this document were tested against BAW, CEW and CL using procedures described in the following examples. In the reporting of the results, the “BAW & CEW & CL Rating Table” was used (See Table Section).
Bioassays on BAW (Spodoptera exigua)
Bioassays on BAW were conducted using a 128-well diet tray assay. One to five second instar BAW larvae were placed in each well (3 mL) of the diet tray that had been previously filled with 1 mL of artificial diet to which 50 μg/cm^2 of the test compound (dissolved in 50 μL of 90:10 acetone-water mixture) had been applied (to each of eight wells) and then allowed to dry. Trays were covered with a clear self-adhesive cover, and held at 25° C., 14:10 light-dark for five to seven days. Percent mortality was recorded for the larvae in each well; activity in the eight wells was then averaged. The results are indicated in the tables entitled “Table 3: Assay Results Part 1” and “Table 4: Assay Results Part 2” (See Table Section).

SMILES | BAW Rating
Cc1cc(/C=C/C(c2cc(Cl)cc(Cl)c2)C(F)(F)F)ccc1C(=O)NCc1ccc(Cl)nc1 (centres unmarked) [AC7] | A (50-100)
Cc1cc(/C=C/C(c2cc(Cl)cc(Cl)c2)C(F)(F)F)ccc1C(=O)NCc1ccccc1F (centres unmarked) [AC9] | A (50-100)
Cc1cc(/C=C/C(c2cc(Cl)cc(Cl)c2)C(F)(F)F)ccc1C(=O)NC1CSC1 (centres unmarked) [AC10] | A (50-100)
Cc1cc(/C=C/C(c2cc(Cl)cc(Cl)c2)C(F)(F)F)ccc1C(=O)NCc1ccccc1 (centres unmarked) [AC11] | A (50-100)
Cc1cc(/C=C/C(c2cc(Cl)cc(Cl)c2)C(F)(F)F)ccc1C(=O)NCc1ccccn1 (centres unmarked) [AC12] | A (50-100)
Cc1cc(/C=C/C(c2cc(Cl)cc(Cl)c2)C(F)(F)F)ccc1C(=O)NC1CS(=O)(=O)C1 (centres unmarked) [AC13] | A (50-100)
Cc1cc(/C=C/C(c2cc(Cl)cc(Cl)c2)C(F)(F)F)ccc1C(=O)NCc1cnc(Cl)s1 (centres unmarked) [AC15] | A (50-100)
Cc1cc(/C=C/C(c2cc(Cl)cc(Cl)c2)C(F)(F)F)ccc1C(=O)NC(C)(C)c1ccccn1 (centres unmarked) [AC16] | A (50-100)
Cc1cc(/C=C/C(c2cc(Cl)cc(Cl)c2)C(F)(F)F)ccc1C(=O)NNc1ccccc1F (centres unmarked) [AC17] | A (50-100)
Cc1cc(/C=C/C(c2cc(Cl)cc(Cl)c2)C(F)(F)F)ccc1C(=O)NCc1ncccn1 (centres unmarked) [AC18] | A (50-100)
Cc1cc(/C=C/C(c2cc(Cl)cc(Cl)c2)C(F)(F)F)ccc1C(=O)NCc1ccoc1 (centres unmarked) [AC20] | A (50-100)
Cc1cc(/C=C/C(c2cc(Cl)c(Cl)c(Cl)c2)C(F)(F)F)ccc1C(=O)NCc1ccc(Cl)nc1 (centres unmarked) [AC22] | A (50-100)
Cc1cc(/C=C/C(c2cc(Cl)c(Cl)c(Cl)c2)C(F)(F)F)ccc1C(=O)NC1CSC1 (centres unmarked) [AC23] | A (50-100)
Cc1cc(/C=C/C(c2cc(Cl)c(Cl)c(Cl)c2)C(F)(F)F)ccc1C(=O)NCc1cnc(Cl)s1 (centres unmarked) [AC26] | A (50-100)
Cc1cc(/C=C/C(c2cc(Cl)c(Cl)c(Cl)c2)C(F)(F)F)ccc1C(=O)NC(C)(C)c1ccccn1 (centres unmarked) [AC27] | A (50-100)
O=C(NCc1ccc(Cl)nc1)c1ccc(/C=C/C(c2cc(Cl)c(Cl)c(Cl)c2)C(F)(F)F)cc1Cl (centres unmarked) [AC28] | A (50-100)
O=C(NC1CSC1)c1ccc(/C=C/C(c2cc(Cl)c(Cl)c(Cl)c2)C(F)(F)F)cc1Cl (centres unmarked) [AC29] | A (50-100)
O=C(NC1CS(=O)(=O)C1)c1ccc(/C=C/C(c2cc(Cl)c(Cl)c(Cl)c2)C(F)(F)F)cc1Cl (centres unmarked) [AC30] | A (50-100)
O=C(NCc1ccc(Cl)nc1)c1ccc(/C=C/C(c2cc(Cl)c(Cl)c(Cl)c2)C(F)(F)F)cc1Br (centres unmarked) [AC31] | A (50-100)
O=C(NC1CSC1)c1ccc(/C=C/C(c2cc(Cl)c(Cl)c(Cl)c2)C(F)(F)F)cc1Br (centres unmarked) [AC32] | A (50-100)
O=C(NC1CS(=O)(=O)C1)c1ccc(/C=C/C(c2cc(Cl)c(Cl)c(Cl)c2)C(F)(F)F)cc1Br (centres unmarked) [AC33] | A (50-100)
O=C(NC1CSC1)c1ccc(/C=C/C(c2cc(Cl)c(Cl)c(Cl)c2)C(F)(F)F)cc1C(F)(F)F (centres unmarked) [AC34] | A (50-100)
O=C(NC1CS(=O)(=O)C1)c1ccc(/C=C/C(c2cc(Cl)c(Cl)c(Cl)c2)C(F)(F)F)cc1C(F)(F)F (centres unmarked) [AC35] | A (50-100)
O=C(NCc1ccc(Cl)nc1)c1ccc(/C=C/C(c2cc(Cl)c(Cl)c(Cl)c2)C(F)(F)F)cc1C(F)(F)F (centres unmarked) [AC36] | A (50-100)
Cc1cc(/C=C/C(c2ccc(Cl)c(Cl)c2)C(F)(F)F)ccc1C(=O)NCc1ccc(Cl)nc1 (centres unmarked) [AC37] | A (50-100)

SMILES | BAW Rating
Cc1cc(/C=C/C(c2cc(Cl)c(F)c(Cl)c2)C(F)(F)F)ccc1C(=O)NCc1ccc(Cl)nc1 (centres unmarked) [AC38] | A (50-100)
Cc1cc(/C=C/C(c2cc(Cl)cc(Cl)c2)C(F)(F)F)ccc1C(=O)NCc1cncnc1 (centres unmarked) [AC39, 4-((E)-3-(3,5-Dichlorophenyl)-4,4,4-trifluorobut-1-enyl)-2-methyl-N-((pyrimidin-5-yl)methyl)benzamide] | A (50-100)
Cc1cc(/C=C/C(c2cc(Cl)cc(Cl)c2)C(F)(F)F)ccc1C(=O)NCC(=O)NC1CC1 (centres unmarked) [AC40] | A (50-100)
Cc1cc(/C=C/C(c2cc(Cl)cc(Cl)c2)C(F)(F)F)ccc1C(=O)NCC(=O)NC1CSC1 (centres unmarked) [AC41] | A (50-100)
Cc1cc(/C=C/C(c2cc(Cl)cc(Cl)c2)C(F)(F)F)ccc1C(=O)NCc1nc2ccccc2s1 (centres unmarked) [AC42] | A (50-100)
Cc1cc(/C=C/C(c2cc(Cl)cc(Cl)c2)C(F)(F)F)ccc1C(=O)NCc1cnccn1 (centres unmarked) [AC43] | A (50-100)
Cc1cc(/C=C/C(c2cc(Cl)cc(Cl)c2)C(F)(F)F)ccc1C(=O)NN(C)c1ccccc1F (centres unmarked) [AC45] | A (50-100)
Cc1cc(/C=C/C(c2cc(Cl)cc(Cl)c2)C(F)(F)F)ccc1C(=O)NCc1ccc(Cl)cc1 (centres unmarked) [AC48] | A (50-100)
O=C(NCc1ccc(Cl)nc1)c1ccc(/C=C/C(c2cc(Cl)cc(Cl)c2)C(F)(F)F)cc1F (centres unmarked) [AC49] | A (50-100)
Cc1cc(/C=C/C(c2cc(Cl)cc(Cl)c2)C(F)(F)F)ccc1C(=O)NCc1nccn1C (centres unmarked) [AC50] | A (50-100)
Cc1cc(/C=C/C(c2cc(Cl)cc(Cl)c2)C(F)(F)F)ccc1C(=O)NCC(=O)N(C)CC(F)(F)F (centres unmarked) [AC51] | A (50-100)
Cc1cc(/C=C/C(c2cc(Cl)c(F)c(Cl)c2)C(F)(F)F)ccc1C(=O)NC1CCOCC1 (centres unmarked) [AC52] | A (50-100)
Cc1cc(/C=C/C(c2cc(Cl)c(F)c(Cl)c2)C(F)(F)F)ccc1C(=O)NCc1ccc(Cl)cn1 (centres unmarked) [AC53] | A (50-100)
Cc1cc(/C=C/C(c2cc(Cl)c(F)c(Cl)c2)C(F)(F)F)ccc1C(=O)NCc1ccnc(Cl)c1 (centres unmarked) [AC54] | A (50-100)
CC(C)(C)OC(=O)CNC(=O)c1ccc(/C=C/C(c2cc(Cl)c(Cl)c(Cl)c2)C(F)(F)F)cc1Br (centres unmarked) [AC58] | A (50-100)
Cc1cc(/C=C/C(c2cc(Cl)cc(Cl)c2)C(F)(F)F)ccc1C(=O)Nc1ccc(Cl)nc1 (centres unmarked) [AC59] | A (50-100)
O=C(NC1CSC1)c1ccc(/C=C/C(c2cc(Cl)cc(Cl)c2)C(F)(F)F)cc1F (centres unmarked) [AC61] | A (50-100)
O=C(CNC(=O)c1ccc(/C=C/C(c2cc(Cl)cc(Cl)c2)C(F)(F)F)cc1F)NCC(F)(F)F (centres unmarked) [AC62] | A (50-100)
O=C(NCc1ccc(Cl)nc1)c1ccc(/C=C/C(c2cc(Cl)c(F)c(Cl)c2)C(F)(F)F)cc1Br (centres unmarked) [AC63] | A (50-100)
O=C(CNC(=O)c1ccc(/C=C/C(c2cc(Cl)c(Cl)c(Cl)c2)C(F)(F)F)cc1Cl)NCC(F)(F)F (centres unmarked) [AC64, (E)-2-Chloro-N-(2-oxo-2-((2,2,2-trifluoroethyl)amino)ethyl)-4-(4,4,4-trifluoro-3-(3,4,5-trichlorophenyl)but-1-en-1-yl)benzamide] | A (50-100)
O=C(NCc1ccc(Cl)nc1)c1ccc(/C=C/C(c2cc(Cl)c(F)c(Cl)c2)C(F)(F)F)cc1F (centres unmarked) [AC65] | A (50-100)
O=C(CNC(=O)c1ccc(/C=C/C(c2cc(Cl)c(Cl)c(Cl)c2)C(F)(F)F)cc1Br)NCC(F)(F)F (centres unmarked) [AC66] | A (50-100)
O=C(NC1CSC1)c1ccc(/C=C/C(c2cc(Cl)c(F)c(Cl)c2)C(F)(F)F)cc1F (centres unmarked) [AC67] | A (50-100)
O=C(CNC(=O)c1ccc(/C=C/C(c2cc(Cl)c(F)c(Cl)c2)C(F)(F)F)cc1F)NCC(F)(F)F (centres unmarked) [AC68] | A (50-100)
Cc1cc(/C=C/C(c2cc(Cl)c(F)c(Cl)c2)C(F)(F)F)ccc1C(=O)NCC(=O)NCC(F)(F)F (centres unmarked) [AC69] | A (50-100)
